In US12043599B2, “Herbicidal compounds” (SYNGENTA PARTICIPATIONS AG, priority 2018, dated 2024):

Experiments:
Type in all cases: in vivo
Conditions in all cases: 250 g/h, evaluated after 13 days
[1] = system: Echinochloa crus-galli (ECHCG); test: Post-emergence herbicidal glasshouse test, percentage damage
Procedure: (§1) Seeds of a variety of test species are sown in standard soil in pots (Lolium perenne (LOLPE), Setaria faberi (SETFA), Alopecurus myosuroides (ALOMY), Echinochloa crus-galli (ECHCG), Avena fatua (AVEFA)). After cultivation for one day (pre-emergence) or after 8 days cultivation (post-emergence) under controlled conditions in a glasshouse (at 24/16° C., day/night; 14 hours light; 65% humidity), the plants are sprayed with an aqueous spray solution derived from the formulation of the technical active ingredient in acetone/water (50:50) solution containing 0.5% Tween 20 (polyoxyethelyene sorbitan monolaurate, CAS RN 9005-64-5). Compounds are applied at […]. The test plants are then grown in a glasshouse under controlled conditions in a glasshouse (at 24/16° C., day/night; 14 hours light; 65% humidity) and watered twice daily. After 13 days for pre and post-emergence, the test is evaluated for the percentage damage caused to the plant. The biological activities are shown in the following table on a five point scale (5=80-100%; 4=60-79%; 3=40-59%; 2=20-39%; 1=0-19%).

Lolium perenne (LOLPE) [2] = test: as above
Procedure: as §1

Avena fatua (AVEFA) [3] = test: as above
Procedure: as §1

[4] = system: Alopecurus myosuroides (ALOMY); test: Pre-emergence herbicidal glasshouse test, percentage damage
Procedure: as §1

[5] = system: Echinochloa crus-galli (ECHCG); test: as above
Procedure: as §1

Lolium perenne (LOLPE) [6] = test: as above
Procedure: as §1

Setaria faberi (SETFA) [7] = test: as above
Procedure: as §1

Avena fatua (AVEFA) [8] = test: as above
Procedure: as §1

Setaria faberi (SETFA) [9] = test: Post-emergence herbicidal glasshouse test, percentage damage
Procedure: as §1
Using procedures outlines above, wheat and barley crop plants and a weed species (SETFA) are treated post-emergence with compound A11 of the present invention or comparator compound C1 (Compound A-38 from WO2014/096289) at the application rates indicated. The compounds were also applied to wheat in conjunction with the safener compound cloquintocet-mexyl (CQC) at 50 g/ha.

SMILES: CC#Cc1cc(C)c(C2=C(OC(=O)OC)CC3(CCN(C(=O)C4CCOCC4)CC3)CC2=O)c(C)c1 [Compound P40]
- ECHCG POST percentage damage (five point scale) [1]: 5 (5=80-100%)
- LOLPE POST percentage damage (five point scale) (Lolium perenne (LOLPE) [2]): 5 (5=80-100%)
- AVEFA POST percentage damage (five point scale) (Avena fatua (AVEFA) [3]): 5 (5=80-100%)
- ALOMY PRE percentage damage (five point scale) [4]: 5 (5=80-100%)
- ECHCG PRE percentage damage (five point scale) [5]: 5 (5=80-100%)
- LOLPE PRE percentage damage (five point scale) (Lolium perenne (LOLPE) [6]): 5 (5=80-100%)
- SETFA PRE percentage damage (five point scale) (Setaria faberi (SETFA) [7]): 5 (5=80-100%)
- AVEFA PRE percentage damage (five point scale) (Avena fatua (AVEFA) [8]): 5 (5=80-100%)
- SETFA POST percentage damage (five point scale) (Setaria faberi (SETFA) [9]): 5 (5=80-100%)

SMILES: CC#Cc1cc(C)c(C2=C(OC(=O)OC)CC3(CCN(C(=O)C4CC4)CC3)CC2=O)c(C)c1 [Compound P42]
- ECHCG POST percentage damage (five point scale) [1]: 5 (5=80-100%)
- LOLPE POST percentage damage (five point scale) (Lolium perenne (LOLPE) [2]): 5 (5=80-100%)
- AVEFA POST percentage damage (five point scale) (Avena fatua (AVEFA) [3]): 5 (5=80-100%)
- ALOMY PRE percentage damage (five point scale) [4]: 5 (5=80-100%)
- ECHCG PRE percentage damage (five point scale) [5]: 5 (5=80-100%)
- LOLPE PRE percentage damage (five point scale) (Lolium perenne (LOLPE) [6]): 5 (5=80-100%)
- SETFA PRE percentage damage (five point scale) (Setaria faberi (SETFA) [7]): 5 (5=80-100%)
- AVEFA PRE percentage damage (five point scale) (Avena fatua (AVEFA) [8]): 5 (5=80-100%)
- SETFA POST percentage damage (five point scale) (Setaria faberi (SETFA) [9]): 5 (5=80-100%)

SMILES: CC#Cc1cc(C)c(C2=C(OC(=O)OC)CC3(CCN(C(=O)c4cnccn4)CC3)CC2=O)c(C)c1 [Compound P38]
- ECHCG POST percentage damage (five point scale) [1]: 5 (5=80-100%)
- LOLPE POST percentage damage (five point scale) (Lolium perenne (LOLPE) [2]): 5 (5=80-100%)
- AVEFA POST percentage damage (five point scale) (Avena fatua (AVEFA) [3]): 5 (5=80-100%)
- ALOMY PRE percentage damage (five point scale) [4]: 5 (5=80-100%)
- ECHCG PRE percentage damage (five point scale) [5]: 5 (5=80-100%)
- LOLPE PRE percentage damage (five point scale) (Lolium perenne (LOLPE) [6]): 5 (5=80-100%)
- SETFA PRE percentage damage (five point scale) (Setaria faberi (SETFA) [7]): 5 (5=80-100%)
- AVEFA PRE percentage damage (five point scale) (Avena fatua (AVEFA) [8]): 5 (5=80-100%)
- SETFA POST percentage damage (five point scale) (Setaria faberi (SETFA) [9]): 5 (5=80-100%)

SMILES: CC#Cc1cc(C)c(C2=C(OC(C)=O)CC3(CCN(C(=O)CC#N)CC3)CC2=O)c(C)c1 [Compound P41]
- ECHCG POST percentage damage (five point scale) [1]: 5 (5=80-100%)
- LOLPE POST percentage damage (five point scale) (Lolium perenne (LOLPE) [2]): 5 (5=80-100%)
- AVEFA POST percentage damage (five point scale) (Avena fatua (AVEFA) [3]): 5 (5=80-100%)
- ALOMY PRE percentage damage (five point scale) [4]: 5 (5=80-100%)
- ECHCG PRE percentage damage (five point scale) [5]: 5 (5=80-100%)
- LOLPE PRE percentage damage (five point scale) (Lolium perenne (LOLPE) [6]): 5 (5=80-100%)
- SETFA PRE percentage damage (five point scale) (Setaria faberi (SETFA) [7]): 5 (5=80-100%)
- AVEFA PRE percentage damage (five point scale) (Avena fatua (AVEFA) [8]): 5 (5=80-100%)
- SETFA POST percentage damage (five point scale) (Setaria faberi (SETFA) [9]): 5 (5=80-100%)

SMILES: CC#Cc1cc(C)c(C2=C(OC(=O)OC)CC3(CCN(C(=O)c4cccnc4)CC3)CC2=O)c(C)c1 [Compound P35]
- ECHCG POST percentage damage (five point scale) [1]: 5 (5=80-100%)
- LOLPE POST percentage damage (five point scale) (Lolium perenne (LOLPE) [2]): 5 (5=80-100%)
- AVEFA POST percentage damage (five point scale) (Avena fatua (AVEFA) [3]): 5 (5=80-100%)
- ALOMY PRE percentage damage (five point scale) [4]: 5 (5=80-100%)
- ECHCG PRE percentage damage (five point scale) [5]: 5 (5=80-100%)
- LOLPE PRE percentage damage (five point scale) (Lolium perenne (LOLPE) [6]): 5 (5=80-100%)
- SETFA PRE percentage damage (five point scale) (Setaria faberi (SETFA) [7]): 5 (5=80-100%)
- AVEFA PRE percentage damage (five point scale) (Avena fatua (AVEFA) [8]): 5 (5=80-100%)
- SETFA POST percentage damage (five point scale) (Setaria faberi (SETFA) [9]): 5 (5=80-100%)

SMILES: CC#Cc1cc(C)c(C2=C(OC(=O)OC)CC3(CCN(C(=O)C4COC4)CC3)CC2=O)c(C)c1 [Compound P44]
- ECHCG POST percentage damage (five point scale) [1]: 5 (5=80-100%)
- LOLPE POST percentage damage (five point scale) (Lolium perenne (LOLPE) [2]): 5 (5=80-100%)
- AVEFA POST percentage damage (five point scale) (Avena fatua (AVEFA) [3]): 5 (5=80-100%)
- ALOMY PRE percentage damage (five point scale) [4]: 5 (5=80-100%)
- ECHCG PRE percentage damage (five point scale) [5]: 5 (5=80-100%)
- LOLPE PRE percentage damage (five point scale) (Lolium perenne (LOLPE) [6]): 5 (5=80-100%)
- SETFA PRE percentage damage (five point scale) (Setaria faberi (SETFA) [7]): 5 (5=80-100%)
- AVEFA PRE percentage damage (five point scale) (Avena fatua (AVEFA) [8]): 5 (5=80-100%)
- SETFA POST percentage damage (five point scale) (Setaria faberi (SETFA) [9]): 5 (5=80-100%)

SMILES: CC#Cc1cc(C)c(C2=C(OC(=O)OC)CC3(CCN(C(=O)CC#N)CC3)CC2=O)c(C)c1 [Compound P43]
- ECHCG POST percentage damage (five point scale) [1]: 4 (4=60-79%)
- LOLPE POST percentage damage (five point scale) (Lolium perenne (LOLPE) [2]): 5 (5=80-100%)
- AVEFA POST percentage damage (five point scale) (Avena fatua (AVEFA) [3]): 5 (5=80-100%)
- ALOMY PRE percentage damage (five point scale) [4]: 5 (5=80-100%)
- ECHCG PRE percentage damage (five point scale) [5]: 5 (5=80-100%)
- LOLPE PRE percentage damage (five point scale) (Lolium perenne (LOLPE) [6]): 5 (5=80-100%)
- SETFA PRE percentage damage (five point scale) (Setaria faberi (SETFA) [7]): 5 (5=80-100%)
- AVEFA PRE percentage damage (five point scale) (Avena fatua (AVEFA) [8]): 5 (5=80-100%)
- SETFA POST percentage damage (five point scale) (Setaria faberi (SETFA) [9]): 5 (5=80-100%)
